{"source": "patent US9469650B2", "about": "“Melampomagnolide B derivatives” (BOARD OF TRUSTEES OF THE UNIVERSITY OF ARKANSAS, priority 2013, dated 2016)", "key": {"SF-295": {"test_system": "SF-295", "test": "panel of 60 human tumor cell lines, growth inhibition (CNS Cancer)", "conditions": "Homo sapiens"}, "HCT-116": {"test_system": "HCT-116", "test": "panel of 60 human tumor cell lines, growth inhibition (Colon Cancer)", "conditions": "Homo sapiens; for GI50: HCT-116, HCT-116"}, "NCI-H522": {"test_system": "NCI-H522", "test": "panel of 60 human tumor cell lines, growth inhibition (Non-Small Cell Lung Cancer)", "conditions": "Homo sapiens"}, "HS 578T": {"test_system": "HS 578T", "test": "panel of 60 human tumor cell lines, growth inhibition (Breast Cancer)", "conditions": "Homo sapiens, Hs-578T"}, "NCI-H322M": {"test_system": "NCI-H322M", "test": "panel of 60 human tumor cell lines, growth inhibition (Non-Small Cell Lung Cancer)", "conditions": "Homo sapiens"}, "OVCAR-3": {"test_system": "OVCAR-3", "test": "panel of 60 human tumor cell lines, growth inhibition (Ovarian Cancer)"}, "HT29": {"test_system": "HT29", "test": "panel of 60 human tumor cell lines, growth inhibition (Colon Cancer)", "conditions": "for Percent Growth: HT29"}, "SW-620": {"test_system": "SW-620", "test": "panel of 60 human tumor cell lines, growth inhibition (Colon Cancer)", "conditions": "Homo sapiens; for GI50: SW-620, SW-620"}, "SF-268": {"test_system": "SF-268", "test": "panel of 60 human tumor cell lines, growth inhibition (CNS Cancer)", "conditions": "Homo sapiens"}, "T-47D": {"test_system": "T-47D", "test": "panel of 60 human tumor cell lines, growth inhibition (Breast Cancer)", "conditions": "Homo sapiens, T47D"}, "K-562": {"test_system": "K-562", "test": "panel of 60 human tumor cell lines, growth inhibition (Leukemia)"}, "TK-10": {"test_system": "TK-10", "test": "panel of 60 human tumor cell lines, growth inhibition (Renal Cancer)", "conditions": "Homo sapiens; for GI50: TK-10, TK-10"}, "OVCAR-5": {"test_system": "OVCAR-5", "test": "panel of 60 human tumor cell lines, growth inhibition (Ovarian Cancer)", "conditions": "Homo sapiens"}, "BT-549": {"test_system": "BT-549", "test": "panel of 60 human tumor cell lines, growth inhibition (Breast Cancer)", "conditions": "Homo sapiens"}, "HCT-15": {"test_system": "HCT-15", "test": "panel of 60 human tumor cell lines, growth inhibition (Colon Cancer)", "conditions": "Homo sapiens"}, "SNB-75": {"test_system": "SNB-75", "test": "panel of 60 human tumor cell lines, growth inhibition (CNS Cancer)", "conditions": "Homo sapiens"}, "A549/ATCC": {"test_system": "A549/ATCC", "test": "panel of 60 human tumor cell lines, growth inhibition (Non-Small Cell Lung Cancer)", "conditions": "Homo sapiens"}}, "data": [{"compound": "C=C1C(=O)O[C@H]2[C@H]1CC/C(COC(=O)NCCN1CCOCC1)=C\\CC[C@@]1(C)O[C@@H]21", "note": "[JVM 57, ((1aR,7aS,10aS,10bS,E)-1a-methyl-8-methylene-9-oxo-1a,2,3,6,7,7a,8,9,10a,10b-decahydrooxireno[2′,3′:9,10]-cyclodeca[1,2-b]furan-5-yl)-methyl(2-morpholinoethyl)carbamate]", "values": [{"measurement": "GI50", "setting": "SF-295; SF-295", "value": "> 100", "unit": "µM"}, {"measurement": "CC50", "setting": "SF-295; SF-295, read-out: LC50", "value": "> 100", "unit": "µM"}, {"measurement": "IC (TGI)", "setting": "SF-295; SF-295, read-out: TGI", "value": "> 100", "unit": "µM"}, {"measurement": "GI50", "setting": "HCT-116", "value": 2.87, "unit": "µM"}, {"measurement": "GI50", "setting": "HCT-116; 5-dose assay", "value": 2.87, "unit": "µM"}, {"measurement": "CC50", "setting": "HCT-116; HCT-116, read-out: LC50", "value": 38.9, "unit": "µM"}, {"measurement": "IC (TGI)", "setting": "HCT-116; HCT-116, read-out: TGI", "value": 10.7, "unit": "µM"}, {"measurement": "GI50", "setting": "NCI-H522; NCI-H522", "value": 2.13, "unit": "µM"}, {"measurement": "CC50", "setting": "NCI-H522; NCI-H522, read-out: LC50", "value": 31.8, "unit": "µM"}, {"measurement": "IC (TGI)", "setting": "NCI-H522; NCI-H522, read-out: TGI", "value": 5.88, "unit": "µM"}, {"measurement": "GI50", "setting": "HS 578T", "value": 20.1, "unit": "µM"}, {"measurement": "CC50", "setting": "HS 578T; read-out: LC50", "value": "> 100", "unit": "µM"}, {"measurement": "IC (TGI)", "setting": "HS 578T; read-out: TGI", "value": "> 100", "unit": "µM"}, {"measurement": "GI50", "setting": "NCI-H322M", "value": 37.9, "unit": "µM"}, {"measurement": "CC50", "setting": "NCI-H322M; read-out: LC50", "value": "> 100", "unit": "µM"}, {"measurement": "IC (TGI)", "setting": "NCI-H322M; read-out: TGI", "value": "> 100", "unit": "µM"}, {"measurement": "GI50", "setting": "OVCAR-3; Homo sapiens, OVCAR-3", "value": 6.2, "unit": "µM"}, {"measurement": "CC50", "setting": "OVCAR-3; Homo sapiens, OVCAR-3, read-out: LC50", "value": 44.1, "unit": "µM"}, {"measurement": "IC (TGI)", "setting": "OVCAR-3; Homo sapiens, OVCAR-3, read-out: TGI", "value": 18.7, "unit": "µM"}, {"measurement": "Percent Growth", "setting": "OVCAR-3; OVCAR-3, Log10 Concentration −4.0", "value": "−98", "unit": "%"}, {"measurement": "Percent Growth", "setting": "OVCAR-3; OVCAR-3, Log10 Concentration −5.0", "value": 37, "unit": "%"}, {"measurement": "Percent Growth", "setting": "OVCAR-3; OVCAR-3, Log10 Concentration −6.0", "value": 101, "unit": "%"}, {"measurement": "Percent Growth", "setting": "OVCAR-3; OVCAR-3, Log10 Concentration −7.0", "value": 109, "unit": "%"}, {"measurement": "Percent Growth", "setting": "OVCAR-3; OVCAR-3, Log10 Concentration −8.0", "value": 109, "unit": "%"}, {"measurement": "Percent Growth", "setting": "HT29; Log10 Concentration −4.0", "value": "−74", "unit": "%"}, {"measurement": "Percent Growth", "setting": "HT29; Log10 Concentration −5.0", "value": 43, "unit": "%"}, {"measurement": "Percent Growth", "setting": "HT29; Log10 Concentration −6.0", "value": 110, "unit": "%"}, {"measurement": "Percent Growth", "setting": "HT29; Log10 Concentration −7.0", "value": 108, "unit": "%"}, {"measurement": "Percent Growth", "setting": "HT29; Log10 Concentration −8.0", "value": 102, "unit": "%"}, {"measurement": "GI50", "setting": "HT29; Homo sapiens, HT-29", "value": 7.83, "unit": "µM"}, {"measurement": "CC50", "setting": "HT29; Homo sapiens, HT-29, read-out: LC50", "value": 62.7, "unit": "µM"}, {"measurement": "IC (TGI)", "setting": "HT29; Homo sapiens, HT-29, read-out: TGI", "value": 23.3, "unit": "µM"}, {"measurement": "GI50", "setting": "SW-620", "value": 3.48, "unit": "µM"}, {"measurement": "GI50", "setting": "SW-620; 5-dose assay", "value": 3.48, "unit": "µM"}, {"measurement": "CC50", "setting": "SW-620; SW-620, read-out: LC50", "value": 64.8, "unit": "µM"}, {"measurement": "IC (TGI)", "setting": "SW-620; SW-620, read-out: TGI", "value": 13.9, "unit": "µM"}, {"measurement": "GI50", "setting": "SF-268; SF-268", "value": 14.5, "unit": "µM"}, {"measurement": "CC50", "setting": "SF-268; SF-268, read-out: LC50", "value": 64.4, "unit": "µM"}, {"measurement": "IC (TGI)", "setting": "SF-268; SF-268, read-out: TGI", "value": 30.5, "unit": "µM"}, {"measurement": "GI50", "setting": "T-47D", "value": 6.32, "unit": "µM"}, {"measurement": "CC50", "setting": "T-47D; read-out: LC50", "value": 71.5, "unit": "µM"}, {"measurement": "IC (TGI)", "setting": "T-47D; read-out: TGI", "value": 23.2, "unit": "µM"}, {"measurement": "GI50", "setting": "K-562; Homo sapiens, K562", "value": 3.37, "unit": "µM"}, {"measurement": "CC50", "setting": "K-562; Homo sapiens, K562, read-out: LC50", "value": "> 100", "unit": "µM"}, {"measurement": "TGI", "setting": "K-562; K-562", "value": "2.88E−5"}, {"measurement": "Percent Growth", "setting": "K-562; K-562, Log10 Concentration −4.0", "value": "−16", "unit": "%"}, {"measurement": "Percent Growth", "setting": "K-562; K-562, Log10 Concentration −5.0", "value": 14, "unit": "%"}, {"measurement": "Percent Growth", "setting": "K-562; K-562, Log10 Concentration −6.0", "value": 90, "unit": "%"}, {"measurement": "Percent Growth", "setting": "K-562; K-562, Log10 Concentration −7.0", "value": 99, "unit": "%"}, {"measurement": "Percent Growth", "setting": "K-562; K-562, Log10 Concentration −8.0", "value": 100, "unit": "%"}, {"measurement": "GI50", "setting": "TK-10", "value": 3.93, "unit": "µM"}, {"measurement": "GI50", "setting": "TK-10; 5-dose assay", "value": 3.93, "unit": "µM"}, {"measurement": "CC50", "setting": "TK-10; TK-10, read-out: LC50", "value": 38.9, "unit": "µM"}, {"measurement": "IC (TGI)", "setting": "TK-10; TK-10, read-out: TGI", "value": 13.9, "unit": "µM"}, {"measurement": "GI50", "setting": "OVCAR-5; OVCAR-5", "value": 15.7, "unit": "µM"}, {"measurement": "CC50", "setting": "OVCAR-5; OVCAR-5, read-out: LC50", "value": 78.5, "unit": "µM"}, {"measurement": "IC (TGI)", "setting": "OVCAR-5; OVCAR-5, read-out: TGI", "value": 35.2, "unit": "µM"}, {"measurement": "GI50", "setting": "BT-549; BT-549", "value": 4.99, "unit": "µM"}, {"measurement": "CC50", "setting": "BT-549; BT-549, read-out: LC50", "value": 49.3, "unit": "µM"}, {"measurement": "IC (TGI)", "setting": "BT-549; BT-549, read-out: TGI", "value": 17.6, "unit": "µM"}, {"measurement": "GI50", "setting": "HCT-15; HCT-15", "value": 10.5, "unit": "µM"}, {"measurement": "CC50", "setting": "HCT-15; HCT-15, read-out: LC50", "value": "> 100", "unit": "µM"}, {"measurement": "IC (TGI)", "setting": "HCT-15; HCT-15, read-out: TGI", "value": 34.4, "unit": "µM"}, {"measurement": "GI50", "setting": "SNB-75; SNB-75", "value": 19.5, "unit": "µM"}, {"measurement": "CC50", "setting": "SNB-75; SNB-75, read-out: LC50", "value": "> 100", "unit": "µM"}, {"measurement": "IC (TGI)", "setting": "SNB-75; SNB-75, read-out: TGI", "value": "> 100", "unit": "µM"}, {"measurement": "GI50", "setting": "A549/ATCC; A549", "value": 28.5, "unit": "µM"}, {"measurement": "CC50", "setting": "A549/ATCC; A549, read-out: LC50", "value": "> 100", "unit": "µM"}, {"measurement": "IC (TGI)", "setting": "A549/ATCC; A549, read-out: TGI", "value": "> 100", "unit": "µM"}]}]}
